Source: patent publication US10966999B2, “3′3′ cyclic dinucleotides with phosphonate bond activating the sting adaptor protein” (INSTITUTE OF ORGANIC CHEMISTRY AND BIOCHEMISTRY ASCR, V.V.I., priority 2017, dated 2021)

Experiments:
AQ STING (G230A-R293Q) = biological target: T1, AQ STING (G230A-R293Q) (Homo sapiens, UniProt Q86WV6, G230A/H232R/R293Q); assay: Differential Scanning Fluorimetry (DSF) with AQ STING; type: binding; conditions: thermal shift vs STING apoprotein; 150 μM CDN; 0.1 mg/ml protein; SYPRO Orange
T1 construct: encoded truncated human WT STING or AQ STING (amino acid residues 140-343) with N-terminal 8×His and SUMO tag; 8xHis-SUMO (N, cleaved yes); made in house; host or cells: E. coli Rosetta-gami B (DE3)
T1 sequence (Q86WV6 140-343 G230A/H232R/R293Q): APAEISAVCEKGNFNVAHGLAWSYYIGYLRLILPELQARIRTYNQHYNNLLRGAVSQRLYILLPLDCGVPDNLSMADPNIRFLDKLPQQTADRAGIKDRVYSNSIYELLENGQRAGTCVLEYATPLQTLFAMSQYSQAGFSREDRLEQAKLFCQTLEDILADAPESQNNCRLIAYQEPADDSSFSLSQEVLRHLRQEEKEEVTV
Procedure: (§1) WT STING and AQ STING Proteins
(§2) Purified PCR products were cleaved with restriction enzymes BamHI (cat. #R0136S, NEB, Ipswich, USA) and NotI (cat. #R0189S, NEB, Ipswich, USA) and cloned into the pSUMO vector linearized with the identical enzymes.
(§3) DNase I (cat. #D5025, Sigma Aldrich, Czech Republic) and RNase A (cat. #R6513, Sigma Aldrich, Czech Republic) were added (final concentration 50 μg/ml) together with MgCl2 (final concentration 5 mmol·l^−1) to the homogenate and bacteria were lysed using French Press G-M™ High-Pressure Cell Press Homogenizer (1500 psi, 3 cycles). […] The resin was poured into a chromatography column, washed with 50 ml buffer A (50 mmol·l^−1 TrisCl (pH 8.0), 800 mmol·l^−1 NaCl, 3 mmol·l^−1 3-mercaptol; 10% glycerol; 20 mmol·l^−1 imidazole) and 8-His-SUMO tagged STING proteins were eluted with 15 ml buffer A containing 300 mmol·l^−1 imidazole. […] Proteins were concentrated with Amicon® Ultra-15 10 K device (cat. #UFC901008, Merck Millipore, Billerica, USA) and flash frozen in liquid N2.
(§4) Differential Scanning Fluorimetry (DSF) with WT STING and AQ STING
(§5) 20 μL solutions of the reaction mixtures were pipetted in triplicates into 96 well optical reaction plates and thermal denaturation of samples were performed on real time PCR cycler (LightCycler R 480 Instrument II—Roche, Basel, Switzerland). The first derivative of the thermal denaturation curves was performed to calculate denaturing temperatures of STING-CDN complexes and STING apoproteins. The thermal shift for each CDN was calculated by subtracting the average denaturing temperature of STING apoprotein from the average denaturing temperature of STING CDN complex.

[1] = biological target: T2, human wild type STING (WT STING) (Homo sapiens, UniProt Q86WV6, H232R); assay: Digitonin assay using 293T wtSTING-FL reporter cells; type: cell-based; conditions: 293T wtSTING-FL cells; ISRE firefly luciferase reporter; 30 min in Digitonin buffer, then 5 hours; 8-point dose-response curve
T2 construct: host or cells: 293T (ATCC CRL-3216), stably transfected, with a 4xISRE firefly luciferase reporter
T2 sequence (Q86WV6 whole entry H232R): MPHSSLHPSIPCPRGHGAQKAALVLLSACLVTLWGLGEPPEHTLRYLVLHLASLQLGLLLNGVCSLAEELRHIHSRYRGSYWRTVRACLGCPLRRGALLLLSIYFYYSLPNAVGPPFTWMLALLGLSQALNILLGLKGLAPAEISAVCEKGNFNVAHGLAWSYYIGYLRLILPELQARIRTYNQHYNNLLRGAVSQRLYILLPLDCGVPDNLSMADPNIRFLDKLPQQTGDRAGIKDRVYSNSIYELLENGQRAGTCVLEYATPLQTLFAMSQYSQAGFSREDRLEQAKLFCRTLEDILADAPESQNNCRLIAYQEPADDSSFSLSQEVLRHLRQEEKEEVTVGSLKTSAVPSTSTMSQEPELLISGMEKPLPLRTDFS
Text: ISRE Reporter Plasmid (pGL64.27-4×ISRE)
Two complementary oligonucleotides of the sequence […] […] […] […] […] The oligonucleotides were mixed in equal molar amounts, hybridized, and cleaved by restriction endonucleases HindIII (cat. #. R0104S, NEB, Ipswich, USA) and BglII (cat. #R0144S, NEB, Ipswich, USA). Ultimately, they were ligated into plasmid pGL4.27 (cat. #E6651, Promega, Madison, USA) linearized with the same enzymes. As result the sequence with four ISRE sites was placed upstream of the minimum promoter of firefly luciferase reporter gene.
After 5 minutes incubation at room temperature (RT), 250 μL of the mixture was added dropwise to the cells in one well. Cells were incubated 36 hours at 37° C. with 5% CO2, and then detached with 0.05% Trypsin and 0.22 g/L EDTA (both cat. #L0941, Biowest, Riverside, USA).
Transfected cells were seeded onto poly-D-lysine coated six well plates at density 50,000 cells per 1 cm^2 in DMEM medium with high glucose containing 10% heat inactivated FBS, 30 μg/mL blasticidin (cat. #ant-bl-05, InvivoGen, San Diego, USA), 0.06 mg/ml Penicillin G and 0.1 mg/ml Streptomycin Sulfate (both cat. #. L0018, Biowest, Riverside, USA). The medium was replenished every 3-4 days until visible colonies of cells resistant to blasticidin were formed.
Blasticidin resistant cells stably expressing WT STING were further transfected with pGL64.27-4×ISRE plasmid following the same procedure as described above. […] Homogeneous culture of stably double transfected cells was prepared by limiting dilution of cells in 96 well plates and wells with cells were selected that originated from a single cell.
The medium was removed next day and three fold serial dilutions of compounds in Digitonin buffer containing 50 mmol·l^−1 HEPES (cat. #H3375, Sigma Aldrich, Czech Republic) pH 7.0, 100 mmol·l^−1 KCl, 3 mmol·l^−1 MgCl2, 0.1 mmol·l^−1 DTT (cat. #D0632, Sigma Aldrich, Czech Republic), 85 mmol·l^−1 Sucrose (cat. #S7903, Sigma Aldrich, Czech Republic), 0.2% BSA (cat. #A2153, Sigma Aldrich, Czech Republic), 1 mmol·l^−1 ATP (cat. #A1852, Sigma Aldrich, Czech Republic), 0.1 mmol·l^−1 GTP (cat. #G8877, Sigma Aldrich, Czech Republic), and 10 μg/mL Digitonin A (cat. #D141, Sigma Aldrich, Czech Republic) were added to the cells. The buffer was removed after 30 minutes incubation at 37° C. with 5% CO2, the cells were washed once with 100 μl of cultivation medium, and 100 μl of medium was added to each well. The plates with cells were incubated for 5 hours at 37° C. with 5% CO2, 50 μl of the medium was removed and 30 μl of ONE-Glo™ Luciferase Assay System reagent (cat. #E6120, Promega, Madison, USA) was added to each well. Luminescence was read on Synergy H1 (Biotek, Winooski, USA).

WT STING = biological target: T3, WT STING (Homo sapiens, UniProt Q86WV6, H232R); assay: Differential Scanning Fluorimetry (DSF) with WT STING; type: binding; conditions: thermal shift vs STING apoprotein; 150 μM CDN; 0.1 mg/ml protein; SYPRO Orange
T3 construct: encoded truncated human WT STING or AQ STING (amino acid residues 140-343) with N-terminal 8×His and SUMO tag; 8xHis-SUMO (N, cleaved yes); made in house; host or cells: E. coli Rosetta-gami B (DE3)
T3 sequence (Q86WV6 140-343 H232R): as the sequence (Q86WV6 140-343 G230A/H232R/R293Q) above, with A91G, Q154R counted along it
Procedure: as §1, §2, §3, §4, §5

ΔTm at 150 µM (AQ STING (G230A-R293Q)) [°C] | EC50 [1] [µM] | ΔTm at 150 µM (WT STING) [°C] | DSF ΔTm AQ STING (AQ STING (G230A-R293Q)) [°C] | DSF ΔTm WT STING (WT STING) [°C] | Compound
2 | 8.6 | 0.4 |  |  | Nc1ncnc2c1ccn2[C@@H]1O[C@@H]2COP(=O)(O)OC3C(O)[C@H](n4cnc5c(N)ncnc54)O[C@@H]3OCP(=O)(O)OC2C1O (stereo partly drawn) [Compound 50]
11.2 | 0.09 | 4.5 |  |  | Nc1nc2c(ncn2[C@@H]2O[C@@H]3COP(=O)(O)OC4C(O)[C@H](n5cnc6c(N)ncnc65)O[C@@H]4OCP(=O)(O)OC3C2O)c(=O)[nH]1 (stereo partly drawn) [Compound 44]
 | 0.03 |  | 19.4 | 11.5 | Nc1nc2c(ncn2[C@@H]2O[C@@H]3COP(=O)(O)O[C@@H]4[C@H](O)[C@@H](COP(=O)(O)O[C@@H]2[C@@H]3O)O[C@H]4n2cnc3c(N)ncnc32)c(=O)[nH]1 [2′2′-cGAMP, reference compound]
2.5 | 19.2 | 0.1 |  |  | Nc1ncnc2c1ncn2[C@@H]1O[C@@H]2OCP(=O)(O)OC3C(O)[C@H](n4cnc5c(N)ncnc54)O[C@@H]3OCP(=O)(O)OC2C1O (stereo partly drawn) [Compound 31, (2R,3R,3aS,7aR,9R,10R,10aS,14aR)-2,9-bis(6-amino-9H-purin-9-yl)-3,5,10,12-tetrahydroxydecahydrodifuro[2,3-e:2′,3′-k][1,4,7,10]tetraoxa[2,8]diphosphacyclododecine 5,12-dioxide]
 | 5.8 |  | 7.7 | 2.6 | Nc1nc2c(ncn2[C@@H]2O[C@@H]3COP(=O)(O)O[C@H]4[C@@H](O)[C@H](n5cnc6c(=O)[nH]c(N)nc65)O[C@@H]4COP(=O)(O)O[C@H]3[C@H]2O)c(=O)[nH]1 [3′3′c-di-GMP, 3′3′-c-di-GMP, reference compound]
6.4 | 1.2 | 0.8 |  |  | Nc1ncnc2c1ncn2[C@@H]1O[C@@H]2OCP(=O)(O)OC3C(O)[C@H](n4cnc5c(N)ncnc54)O[C@@H]3COP(=O)(O)OC2C1O (single isomer, unassigned) [Compound 32]
4.4 | 1.5 | 0.6 |  |  | CNc1ncnc2c1ncn2[C@@H]1O[C@@H]2COP(=O)(O)OC3C(O)[C@H](n4cnc5c(N)ncnc54)O[C@@H]3OCP(=O)(O)OC2C1O (stereo partly drawn) [Compound 48]
2.1 | 20.8 | 0.1 |  |  | Nc1ncnc2c1ncn2[C@@H]1O[C@@H]2COP(=O)(O)OC3C(O)[C@H](n4cnc5c(N)ncnc54)O[C@@H]3OCP(=O)(O)OC2C1N (stereo partly drawn) [Compound 47]
 | 0.3 |  | 9.3 | 2.6 | Nc1ncnc2c1ncn2[C@@H]1O[C@@H]2COP(=O)(O)O[C@H]3[C@@H](O)[C@H](n4cnc5c(N)ncnc54)O[C@@H]3COP(=O)(O)O[C@H]2[C@H]1O [3′3′c-di-AMP, 3′3′-c-di-AMP, reference compound]
 | 0.11 |  | 12.0 | 5.7 | (2R,3R,3aS,7aR,9R,10R,10aR,14aR)-2,9-bis(6-amino-9H-purin-9-yl)-10-fluoro-3,5,12-trihydroxydecahydrodifuro[3,2-d:3′,2′-i][1,3,6,9]tetraoxa[2,8]diphosphacyclododecine 5,12-dioxide [Compound 33]
9.5 | 0.2 | 1.9 |  |  | Nc1nc2c(ncn2[C@@H]2O[C@@H]3OCP(=O)(O)OC4C(O)[C@H](n5cnc6c(N)ncnc65)O[C@@H]4OCP(=O)(O)OC3C2O)c(=O)[nH]1 (stereo partly drawn) [Compound 38]
10.6 | 0.17 | 4 |  |  | Nc1ncnc2c1ncn2[C@@H]1O[C@@H]2OCP(=O)(O)OC3C(O)[C@H](n4cnc5c(N)ncnc54)O[C@@H]3COP(=O)(O)OC2C1O (stereo partly drawn) [Compound 51]
8.8 | 0.9 | 3 |  |  | Nc1ncnc2c1ncn2[C@@H]1O[C@@H]2OCP(=O)(O)OC3C(F)[C@H](n4cnc5c(N)nc(F)nc54)O[C@@H]3COP(=O)(O)OC2C1O (stereo partly drawn) [Compound 53]
15.9 | 0.005 | 7.6 |  |  | Nc1nc2c(ncn2[C@@H]2O[C@@H]3OCP(=O)(O)OC4C(O)[C@H](n5cnc6c(N)ncnc65)O[C@@H]4COP(=O)(O)OC3C2O)c(=O)[nH]1 (stereo partly drawn) [Compound 37]
1.6 | 17.6 | 0.1 |  |  | COc1nc(N)nc2c1ncn2[C@@H]1O[C@@H]2COP(=O)(O)OC3C(O)[C@H](n4cnc5c(N)ncnc54)O[C@@H]3OCP(=O)(O)OC2C1O (stereo partly drawn) [Compound 41]
8 | 0.12 | 2.9 |  |  | CNc1ncnc2c1ncn2[C@@H]1O[C@@H]2COP(=O)(O)OC3C(O)[C@H](n4cnc5c(=O)[nH]c(N)nc54)O[C@@H]3OCP(=O)(O)OC2C1O (stereo partly drawn) [Compound 39]
5.6 | 8.1 | 0.6 |  |  | Nc1nc2c(ncn2[C@@H]2O[C@@H]3OCP(=O)(O)OC4C(O)[C@H](n5cnc6c(=O)[nH]c(N)nc65)O[C@@H]4OCP(=O)(O)OC3C2O)c(=O)[nH]1 (stereo partly drawn) [Compound 36]
4.3 | 19.6 | 0.2 |  |  | Nc1ncnc2c1ncn2[C@@H]1O[C@@H]2COCP(=O)(O)OC3C(F)[C@H](n4cnc5c(N)ncnc54)O[C@@H]3COP(=O)(O)OC2C1O (stereo partly drawn) [Compound 34, (2R,3R,3aS,7aR,9R,10R,10aR,15aR)-2,9-bis(6-amino-9H-purin-9-yl)-10-fluoro-3,5,12-trihydroxydecahydro-2H-difuro[2,3-e:2′,3′-1][1,3,7,10]tetraoxa[2,8]diphosphacyclotridecine 5,12-dioxide]
6.6 | 0.6 | 0.7 |  |  | Nc1ncc2ncn([C@@H]3O[C@@H]4COP(=O)(O)OC5C(O)[C@H](n6cnc7c(N)ncnc76)O[C@@H]5OCP(=O)(O)OC4C3O)c2n1 (stereo partly drawn) [Compound 42]
4.2 | 1.5 | 0.5 |  |  | Nc1ncnc2c1ncn2[C@@H]1O[C@@H]2OCP(=O)(O)OC3C(O)[C@H](n4cnc5c(N)ncnc54)O[C@@H]3COP(=O)(S)OC2C1O (stereo partly drawn) [Compound 49]
6.3 | 2.2 | 1.1 |  |  | Nc1ncnc2c1ncn2[C@@H]1O[C@@H]2OCP(=O)(O)OC3C(O)[C@H](n4cnc5c(N)nc(F)nc54)O[C@@H]3COP(=O)(O)OC2C1O (stereo partly drawn) [Compound 52]
